In patent US20210071180A1, “MICRORNA 584-5P COMPOSITIONS AND METHODS FOR TREATING CANCER” (BOARD OF REGENTS, THE UNIVERSY OF TEXAS SYSTEM, priority 2018, published 2021):

Key:
MB cells = assay: Cell viability, proliferation, clonogenic and transwell migration assays; type: cell-based
Experimental: Cell viability and proliferation assays. MB cells transfected with miR-584-5p mimic or target siRNAs were seeded in 96-well plates at a density of 5×10^3 for D556Med and DAOY or 10×10^3 for D425Med and D458Med per well for 72 hours. Cell viability was assessed using CellTiter-Glo (Promega) or alamarBlue (Thermofisher), and proliferation was assessed using CyQuant Direct Cell Proliferation Assay (Thermofisher).
Next, the in vitro results were validated by determining the function of miR-584-5p in MB and by using an in vivo tumor xenograft model to test the efficacy of miR-584-5p-VCR combination therapy. […] In FIG. 3A, cell proliferation was measured by CyQuant Cell Proliferation Assay. The p-values were determined using standard Student t-tests. […] In FIG. 3B, cell proliferation was measured using an IncuCyte phase-only processing module. […] The p-value was calculated using a standard Student t-test. […] The p-value was calculated using a standard Student t-test. […] In FIG. 4F, The p-value was calculated using a standard Student t-test. […] Cell proliferation was measured using an IncuCyte phase-only processing module. ****, p<0.0001. […]
To determine whether miR-584-5p imparts its tumor-suppressing and VCR-sensitizing effect by downregulating HDAC1/eIF4E3 levels in MB, the function of eIF4E3 and HDAC1 in MB was investigated. […] The p-values in FIGS. 6C and D were calculated using a standard Student t-test. […]

neural stem cell markers = assay: qPCR analysis of neural stem cell markers; type: cell-based; conditions: miR-584-5p mimic-transfected cells
Experimental: Several research groups have posited the presence of tumor-initiating cells in MBs (Manoranjan, B. et al. Pediatr Res 71, 516-522, (2012)). Moreover, the tumor-initiating cells in general have not responded to radiation and chemotherapy drugs (Manoranj an, B. et al. Pediatr Res 71, 516-522, (2012)). Therefore, it was tested whether miR-584 may inhibit MB tumor-initiating cell proliferation. Consistent with the characteristics of tumor-initiating cells, MB cells cultured in serum-free stem cell media formed tumor spheres that were serially passaged for many cycles (FIG. 14A). Bar graphs show number and size of medullospheres obtained from D556Med cells transfected with miR-NC or miR-584-5p mimic. The p-value was calculated using a standard Student t-test. Error bars represent mean±SEM. […] The p-value was calculated using one-way ANOVA followed by Sidak's multiple-comparisons test. Error bars represent mean±SEM. These findings are highly significant because, this study is one of the first to propose a role for miR-584-5p and its target genes in regulating MB stem cell proliferation.

## miR-584-5p: microRNA mimic; nucleotide sequence UUAUGGUUUGCCUGGGACUGAG (SEQ ID NO: 1); purchased from Thermofisher (chemistry not given here)
MB cells; D556Med cells cotransfected with eIF4E3/HDAC1 expression vector and miR-584-5p mimic
  long-term viability and migration elicited by HDAC1/eIF4E3 overexpression: rescued the increased long-term viability and migration
MB cells; vs miR-NC
  short-term and long-term viability as well as migration of MB cells: reduced
Neural stem cell markers
  levels of neural stem cell markers: significantly reduced
